Key:
enoxaparin (ENOX) = assay: FXa chromogenic assay (absence of plasma), enoxaparin; settings: enoxaparin 0.1 μg/mL, absence of plasma
fondaparinux (FONDAPX) = assay: FXa chromogenic assay (absence of plasma), fondaparinux; settings: fondaparinux 0.02 μg/mL, absence of plasma
fondaparinux = assay: FXa amidolytic assay (Example 10), fondaparinux; settings: read-out: Fondap FXa EC50; fondaparinux 0.02 μg/mL; human antithrombin, bovine Factor Xa
tinzaparin = assay: FXa amidolytic assay (Example 10), tinzaparin; settings: read-out: Tinzap FXa EC50; tinzaparin 0.1 ug/ml; human antithrombin, bovine Factor Xa
Unfractionated heparin = assay: aPTT clotting assay, UFH 0.4 U/mL in plasma (Example 10); assay type: biochemical; settings: unfractionated heparin 0.4 U/mL in plasma; aPTT clotting
Method: aPTT clotting Assay: Unfractionated heparin was mixed with plasma at a final concentration of 0.4 U/mL (or concentration which increases aPTT time to between 120 and 300 seconds). […] The ACL Elite Hemostasis analyzer (Beckman Coulter™) was used to add aPTT reagent (HemosIL SynthASil) to supplemented plasma. Clotting was initiated by addition of CaCl2 and time to clot was recorded.

enoxaparin = assay: FXa amidolytic assay (Example 10), enoxaparin; settings: read-out: Enox FXa EC50; enoxaparin 0.1 ug/ml; human antithrombin, bovine Factor Xa

| ENOX (FXa) EC50 (enoxaparin (ENOX)) | FONDAPX (FXa) EC50 (fondaparinux (FONDAPX)) | EC50 (fondaparinux) | EC50 (tinzaparin) | EC50 (Unfractionated heparin) | EC50 (enoxaparin) | SMILES |
| --- | --- | --- | --- | --- | --- | --- |
| 2.04 µg/mL | 10.31 µg/mL | – | – | – | – | COc1ccc(NC(=O)[C@@H](CCCNC(=N)N)NC(=O)c2cc(NC(=O)[C@@H](C)NC(=O)c3cc(NC(=O)[C@@H](CCCNC(=N)N)NC(=O)c4cc(NC(=O)[C@H](N)CCCNC(=N)N)ccc4OC)ccc3OC)ccc2OC)cc1C(N)=O [Compound 14] |
| 0.88 µg/mL | 6.72 µg/mL | – | – | – | – | COc1ccc(NC(=O)[C@@H](C)NC(=O)c2cc(NC(=O)[C@@H](CCCNC(=N)N)NC(=O)c3cc(NC(=O)[C@@H](CCCNC(=N)N)NC(=O)c4cc(NC(=O)[C@H](N)CCCNC(=N)N)ccc4OC)ccc3OC)ccc2OC)cc1C(N)=O [Compound 13] |
| 16.70 µg/mL | – | – | – | – | – | COc1ccc(NC(=O)[C@H](CCCN)NC(=O)c2cc(NC(=O)[C@H](CCCN)NC(=O)c3cc(NC(=O)[C@H](CCCN)NC(=O)c4cc(NC(=O)[C@@H](N)CCCN)ccc4OC)ccc3OC)ccc2OC)cc1C(N)=O [Compound 89] |
| 0.65 µg/mL | 8.84 µg/mL | – | – | – | – | COc1ccc(NC(=O)[C@@H](CCCNC(=N)N)NC(=O)c2cccc(NC(=O)[C@H](N)CCCNC(=N)N)c2)cc1C(=O)N[C@H](CCCNC(=N)N)C(=O)Nc1ccc(OC)c(C(=O)N[C@H](CCCNC(=N)N)C(=O)Nc2cccc(C(N)=O)c2)c1 [Compound 21] |
| 1.43 µg/mL | – | – | – | – | – | COc1ccc(NC(=O)[C@H](N)CCCNC(=N)N)cc1C(=O)N[C@H](CCCNC(=N)N)C(=O)Nc1ccc(OC)c(C(=O)N[C@H](CCCNC(=N)N)C(=O)Nc2ccc(OCCNC(=N)N)c(C(=O)N[C@H](CCCNC(=N)N)C(=O)Nc3ccc(OCCNC(=N)N)c(C(N)=O)c3)c2)c1 [Compound 10] |
| 0.72 µg/mL | – | – | – | – | – | N=C(N)NCCC[C@@H](N)C(=O)Nc1ccc(OCCNC(=N)N)c(C(=O)N[C@H](CCCNC(=N)N)C(=O)Nc2ccc(OCCNC(=N)N)c(C(=O)N[C@H](CCCNC(=N)N)C(=O)Nc3ccc(OCCNC(=N)N)c(C(=O)N[C@H](CCCNC(=N)N)C(=O)Nc4ccc(OCCNC(=N)N)c(C(N)=O)c4)c3)c2)c1 [Compound 31] |
| – | – | 244 nM | 264 nM | 2740 nM | 264 nM | COc1ccc(NC(=O)[C@@H](CCCNC(=N)N)NC(=O)c2cc(NC(=O)[C@@H](CCCNC(=N)N)NC(=O)c3cc(NC(=O)[C@@H](CCCNC(=N)N)NC(=O)c4cc(NC(C)=O)ccc4OC)ccc3OC)ccc2OC)cc1C(=O)NCC(=O)O [Compound 294] |
| – | – | 1540 nM | 132 nM | 1520 nM | 198 nM | COc1ccc(NC(=O)[C@H](CCCCN)NC(=O)c2cc(NC(=O)[C@H](CCCNC(N)=O)NC(=O)c3cc(NC(=O)[C@H](CCCCN)NC(=O)c4cc(NC(=O)[C@@H](N)CCCCN)ccc4OC)ccc3OC)ccc2OC)cc1C(N)=O [Compound 258] |
| – | – | 10700 nM | 433 nM | > 10000 nM | 497 nM | CSc1ccc(NC(=O)[C@H](CCCNC(=N)N)NC(=O)c2cc(NC(=O)[C@H](CCCNC(=N)N)NC(=O)c3cc(NC(=O)[C@H](CCCNC(=N)N)NC(=O)c4cc(NC(=O)[C@@H](N)CCCNC(=N)N)ccc4SC)ccc3SC)ccc2SC)cc1C(N)=O [Compound 235] |
| – | – | 10600 nM | 215 nM | 1420 nM | 466 nM | COC(=O)c1cc(NC(=O)[C@H](CCCCN)NC(=O)c2cc(NC(=O)[C@H](CCCCN)NC(=O)c3cc(NC(=O)[C@H](CCCCN)NC(=O)c4cc(NC(=O)[C@@H](N)CCCCN)ccc4OC)ccc3OC)ccc2OC)ccc1OC [Compound 249] |
| – | – | > 10000 nM | > 5000 nM | > 10000 nM | > 5000 nM | COc1cc(OC)c(C(=O)N[C@H]2CC[C@@H](NC(=O)c3cc(C(=O)N[C@H]4CC[C@@H](N=C(N(C)C)N(C)C)CC4)c(OC)cc3OC)CC2)cc1C(=O)NCCCN [Compound 405] |
| – | – | 10800 nM | 285 nM | 1550 nM | 581 nM | COc1ccc(NC(=O)[C@H](CCCCN)NC(=O)c2cc(NC(=O)[C@@H](N)CCCCN)ccc2OC)cc1C(=O)N[C@@H](CCCCN)C(=O)Nc1ccc(OC)c(C(=O)N[C@@H](CCCCN)C(=O)Nc2ccc(OC)c(C(=O)N[C@H](C)C(=O)O)c2)c1 [Compound 277] |
| – | – | 2500 nM | 151 nM | 1450 nM | 233 nM | COc1ccc(NC(=O)[C@H](CCCCN)NC(=O)c2cc(NC(=O)[C@H](CCCCN)NC(=O)c3cc(NC(=O)[C@H](CCCCN)NC(=O)c4cc(NC(=O)[C@@H](N)CCCNC(N)=O)ccc4OC)ccc3OC)ccc2OC)cc1C(N)=O [Compound 256] |
| – | – | 3800 nM | 202 nM | 1550 nM | 319 nM | COc1ccc(NC(=O)[C@H](CCCCN)NC(=O)c2cc(NC(=O)[C@H](CCCCN)NC(=O)c3cc(NC(=O)[C@H](CCCCN)NC(=O)c4cc(NC(=O)[C@@H](N)CCCCN)ccc4OC)ccc3OC)ccc2OC)cc1C(=O)N[C@@H](CCCNC(N)=O)C(=O)O [Compound 273] |
| – | – | > 10000 nM | 492 nM | 2050 nM | 1790 nM | COc1ccc(NC(=O)[C@H](CCC(=O)O)NC(=O)c2cc(NC(=O)[C@H](CCCCN)NC(=O)c3cc(NC(=O)[C@H](CCCCN)NC(=O)c4cc(NC(=O)[C@@H](N)CCCCN)ccc4OC)ccc3OC)ccc2OC)cc1C(N)=O [Compound 315] |
| 0.57 µg/mL | – | – | – | – | – | COc1ccc(NC(=O)[C@H](N)CCCNC(=N)N)cc1C(=O)N[C@H](CCCNC(=N)N)C(=O)Nc1ccc(OC)c(C(=O)N[C@H](CCCNC(=N)N)C(=O)Nc2ccc(OC)c(C(=O)N[C@H](CCCNC(=N)N)C(=O)Nc3ccc(OCCNC(=N)N)c(C(N)=O)c3)c2)c1 [Compound 18] |
| – | – | > 10000 nM | 530 nM | 11300 nM | 2750 nM | COc1cc(OC)c(C(=O)N[C@H]2CC[C@@H](NC(=O)c3cc(C(=O)N4CCC(N)CC4)c(OCCCCCN)cc3OCCCCCN)CC2)cc1C(=O)N[C@H]1CC[C@@H](NC(=O)c2cc(C(=O)N3CCC(N)CC3)c(OCCCCCN)cc2OCCCCCN)CC1 [Compound 426] |
| – | – | > 10000 nM | > 5000 nM | > 10000 nM | > 5000 nM | COc1ccc(NC(=O)[C@H](CCCCN)NC(=O)c2cc(NC(=O)[C@H](CCCCN)NC(=O)c3cc(NC(=O)[C@H](CCCCN)NC(=O)c4cc(NC(=O)[C@@H](N)CCCCN)ccc4OC)ccc3SC)ccc2OC)cc1C(N)=O [Compound 251] |
| – | – | 549 nM | 234 nM | 1990 nM | 289 nM | COc1ccc(NC(=O)[C@H](CCCNC(=N)N)NC(=O)c2cc(NC(=O)[C@H](CCCNC(=N)N)NC(=O)c3cc(NC(=O)[C@H](CCCNC(=N)N)NC(=O)c4cc(NC(=O)[C@@H](N)CCC(=O)O)ccc4OC)ccc3OC)ccc2OC)cc1C(N)=O [Compound 326] |
| – | – | 1900 nM | 235 nM | 910 nM | 272 nM | COc1ccc(NC(=O)[C@H](CCCCN)NC(=O)c2cc(NC(=O)[C@H](CCCCN)NC(=O)c3cc(NC(=O)[C@H](CCCCN)NC(=O)c4cc(NC(=O)[C@H](CCCCN)NC(=O)CCC(=O)O)ccc4OC)ccc3OC)ccc2OC)cc1C(N)=O [Compound 339] |
| – | – | 1880 nM | 212 nM | 2270 nM | 318 nM | COc1ccc(NC(=O)[C@H](CCCCN)NC(=O)c2cc(NC(=O)[C@H](CCCCN)NC(=O)c3cc(NC(=O)[C@H](CCCCN)NC(=O)c4cc(NC(=O)[C@H](CCCCN)NC(=O)CC(=O)O)ccc4OC)ccc3OC)ccc2OC)cc1C(N)=O [Compound 290] |
| – | – | 5910 nM | 752 nM | 2900 nM | 1150 nM | CNc1cccc(C(=O)N[C@@H](CCCCN)C(=O)Nc2ccc(OC)c(C(=O)N[C@@H](CCCCN)C(=O)Nc3ccc(OC)c(C(=O)N[C@@H](CCCCN)C(=O)Nc4ccc(OC)c(C(N)=O)c4)c3)c2)c1 [Compound 243] |
| – | – | 502 nM | 62 nM | 429 nM | 88 nM | COc1cc(OC)c(C(=O)N[C@H]2CC[C@@H](NC(=O)c3cc(C(=O)NC4CCNCC4)c(OCCCCCN)cc3OCCCCCN)CC2)cc1C(=O)N[C@H]1CC[C@@H](NC(=O)c2cc(C(=O)NC3CCNCC3)c(OCCCCCN)cc2OCCCCCN)CC1 [Compound 425] |
| – | – | > 10000 nM | > 5000 nM | > 10000 nM | > 5000 nM | COc1cc(OC)c(C(=O)NCCCNC(=O)c2cc(C(=O)NCCN)c(OC)cc2OC)cc1C(=O)O [Compound 392] |
| – | – | 2060 nM | 244 nM | 680 nM | 392 nM | COc1ccc(NC(=O)[C@H](CCCCN)NC(=O)c2cc(NC(=O)[C@H](CCCCN)NC(=O)c3cc(NC(=O)[C@H](CCCCN)NC(=O)c4cc(NC(=O)[C@H](CCCCN)NC(=O)CCCC(=O)O)ccc4OC)ccc3OC)ccc2OC)cc1C(N)=O [Compound 344] |
| – | – | 911 nM | 205 nM | 2990 nM | 233 nM | COc1ccc(NC(=O)[C@H](CCCCN)NC(=O)c2cc(NC(=O)[C@H](CCCCN)NC(=O)c3cc(NC(=O)[C@H](CCCCN)NC(=O)c4cc(NC(=O)[C@H](CCCCN)NC(=O)COCC(=O)O)ccc4OC)ccc3OC)ccc2OC)cc1C(N)=O [Compound 345] |
| – | – | 448 nM | 97 nM | 1640 nM | 93 nM | COc1ccc(NC(=O)[C@@H](CCCNC(=N)N)NC(=O)c2cc(NC(=O)[C@@H](CCCNC(N)=O)NC(=O)c3cc(NC(=O)[C@@H](CCCNC(=N)N)NC(=O)c4cc(NC(=O)[C@H](N)CCCNC(=N)N)ccc4OC)ccc3OC)ccc2OC)cc1C(N)=O [Compound 254] |

From patent US20110178104A1, “Anti-Heparin Compounds” (POLYMEDIX INC., priority 2010, published 2011)
